Test results as given in US20220356174A1, “PYRIDIN-2-ONE COMPOUNDS USEFUL AS SMARCA2 ANTAGONISTS” (Epizyme, Inc., priority 2018, published 2022).

Key:
[1] = biological target: T1, FL-SMARCA2 (full-length human SMARCA2 isoform 1) (Homo sapiens, UniProt P51531); test: SMARCA2 ATPase activity assay (ADP-Glo, chicken mononucleosome substrate); format: biochemical; conditions: Table 3.1; ATPase assay, enzyme 5 nM, ATP 250 uM, chicken mononucleosome 10 nM, 30 min preincubation
T1 construct: FLAG tag (YKDDDDK) (C); made in house; host or cells: Sf21 insect cells (baculovirus, pFastBacI)

[2] = test system: various lung cancer cell lines; test: Long term proliferation (LTP) assay in various cancer cell lines; format: cell-based
Procedure: The following cell lines were evaluated in an adherent cell line proliferation assay described herein: A549, HCC15, COV434, NCIH460, NCIH358, NCIH358-SMARCA2, NCIH358-SMARCA, NCIH1703, NCIH838, NCIH322, NCIH2122, NCIH2023, NCIH1355, NCIH1693, NCIH441, NCIH2030, NCIH1573, NCIH1373, NCIH1650, and NCIH1693. Plating densities for each cell line were determined based on growth curves (measured by ATP viability) and density over a 7 day timecourse. On the day before compound treatment, cells were plated in either 96-well plates in triplicate (for the day 0-7 timecourse) or 6-well plates (for replating on day 7 for the remainder of the timecourse). On Day 0, cells were either untreated, DMSO-treated, or treated with increasing concentrations of Compound 139 up to 10 μM. Plates were read on Day 0, Day 4, and Day 7 using a luminescent cell viability assay, with compound/media being replenished on Day 4. On Day 7, the 6-well plates were trypsinized, centrifuged, and resuspended in fresh media for counting by Vi-Cell. Cells from each treatment were replated at the original density in 96-well plates in triplicate. Cells were allowed to adhere to the plate overnight, and cells were treated as on Day 0. On Day 7, 11 and 14, plates were read using a luminescent cell viability assay, with compound/media being replenished on Day 11. Averages of triplicates were used to plot proliferation over the timecourse, and calculate IC50 values.
The following cell lines were evaluated in an adherent cell line proliferation assay described herein: NCIH522, CORL23, NCIH1693, NCIH1838, HCC1588, NCIH1435, NCIH2085, HCC827, NCIH1792, NCIH596, NCIH1568, NCIH1793, NCIH2126, CORL105, NCIH1573, NCIH1693, NCIH1395, HCC44, NCIH2126, NCIH520, NCIH1373, NCIH2172, NCIH23, HCT116, […], NCIH2347, NCIH2110, NCIH647, NCIH1437, AGS, KMS11, BT549, HUPT4, NCIH1048, TE10, and TE14. Cell densities were determined by growth curve as per protocol 1. For the proliferation assay, on Day 0, cells were either untreated, DMSO-treated, or treated with increasing concentrations of Compound 139 up to 10 μM. Plates were read on Day 0, Day 4, and Day 7 using luminescent cell viability assay. On Day 7, the 6-well plates were trypsinized, centrifuged, and resuspended in fresh media for counting by Vi-Cell. Cells from each treatment were replated at the original density in 96-well plates in triplicate. Cells were treated with compound as on Day 0. On Day 7, 11 and 14, plates were read using a luminescent cell viability assay. Averages of triplicates were used to plot proliferation over the timecourse, and calculate IC50 values.

A549 cells = test: Long term proliferation (LTP) assay, day 15 IC50 in A549 cells; format: cell-based; conditions: Homo sapiens, 360 h
FL-SMARCA4 = FL-SMARCA4 (Homo sapiens, UniProt P51532); test: SMARCA4 ATPase activity assay (ADP-Glo, chicken mononucleosome substrate); conditions: FL-SMARCA4 IC50, Table 3.2; ATPase assay, enzyme 5 nM, ATP 250 uM, chicken mononucleosome 10 nM, 30 min preincubation
Chain of FL-SMARCA4 (P51532 whole entry): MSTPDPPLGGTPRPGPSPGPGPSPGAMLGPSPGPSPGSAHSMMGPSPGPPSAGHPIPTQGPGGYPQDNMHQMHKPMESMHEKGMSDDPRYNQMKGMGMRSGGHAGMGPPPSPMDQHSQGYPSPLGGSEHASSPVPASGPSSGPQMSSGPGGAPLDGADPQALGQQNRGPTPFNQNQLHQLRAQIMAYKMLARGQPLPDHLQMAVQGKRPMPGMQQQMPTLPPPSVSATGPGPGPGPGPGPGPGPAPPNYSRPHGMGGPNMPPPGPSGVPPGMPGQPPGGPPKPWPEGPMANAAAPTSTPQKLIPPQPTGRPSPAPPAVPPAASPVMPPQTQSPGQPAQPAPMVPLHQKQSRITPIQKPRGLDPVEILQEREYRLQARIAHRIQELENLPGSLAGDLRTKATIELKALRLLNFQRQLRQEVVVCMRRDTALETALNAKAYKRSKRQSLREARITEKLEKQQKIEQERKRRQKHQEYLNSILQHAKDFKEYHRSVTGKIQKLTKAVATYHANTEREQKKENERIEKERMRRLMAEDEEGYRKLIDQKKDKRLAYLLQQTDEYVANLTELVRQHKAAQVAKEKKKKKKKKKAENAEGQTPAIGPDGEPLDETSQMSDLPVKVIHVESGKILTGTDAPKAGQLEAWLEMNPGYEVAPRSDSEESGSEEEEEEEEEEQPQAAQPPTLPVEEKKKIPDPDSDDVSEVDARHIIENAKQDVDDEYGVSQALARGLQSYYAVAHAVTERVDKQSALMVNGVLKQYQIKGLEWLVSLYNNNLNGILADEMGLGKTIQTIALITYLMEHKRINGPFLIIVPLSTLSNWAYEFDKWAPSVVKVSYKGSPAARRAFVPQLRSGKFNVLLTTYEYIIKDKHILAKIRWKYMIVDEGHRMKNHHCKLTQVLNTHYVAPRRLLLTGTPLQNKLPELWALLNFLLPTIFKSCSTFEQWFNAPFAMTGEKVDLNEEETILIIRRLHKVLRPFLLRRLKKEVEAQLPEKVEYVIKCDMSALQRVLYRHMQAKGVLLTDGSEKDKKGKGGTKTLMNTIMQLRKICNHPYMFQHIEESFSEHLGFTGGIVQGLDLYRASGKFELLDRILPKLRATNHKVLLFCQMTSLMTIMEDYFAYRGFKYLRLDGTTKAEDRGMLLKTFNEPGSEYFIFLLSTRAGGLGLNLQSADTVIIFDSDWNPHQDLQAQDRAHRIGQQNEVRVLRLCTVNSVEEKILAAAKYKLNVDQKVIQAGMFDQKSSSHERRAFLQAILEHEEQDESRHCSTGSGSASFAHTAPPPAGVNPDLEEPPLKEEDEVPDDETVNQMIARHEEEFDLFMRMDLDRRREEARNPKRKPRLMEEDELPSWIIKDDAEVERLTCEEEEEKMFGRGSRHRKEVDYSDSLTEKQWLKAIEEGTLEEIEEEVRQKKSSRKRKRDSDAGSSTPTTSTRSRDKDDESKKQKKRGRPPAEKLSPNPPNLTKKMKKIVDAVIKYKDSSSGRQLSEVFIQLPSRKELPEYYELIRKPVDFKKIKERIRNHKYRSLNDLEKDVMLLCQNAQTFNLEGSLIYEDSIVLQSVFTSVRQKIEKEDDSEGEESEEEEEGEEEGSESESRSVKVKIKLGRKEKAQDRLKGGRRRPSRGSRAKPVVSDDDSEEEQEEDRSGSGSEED

T1 sequence (P51531 with tags, fused parts or gaps): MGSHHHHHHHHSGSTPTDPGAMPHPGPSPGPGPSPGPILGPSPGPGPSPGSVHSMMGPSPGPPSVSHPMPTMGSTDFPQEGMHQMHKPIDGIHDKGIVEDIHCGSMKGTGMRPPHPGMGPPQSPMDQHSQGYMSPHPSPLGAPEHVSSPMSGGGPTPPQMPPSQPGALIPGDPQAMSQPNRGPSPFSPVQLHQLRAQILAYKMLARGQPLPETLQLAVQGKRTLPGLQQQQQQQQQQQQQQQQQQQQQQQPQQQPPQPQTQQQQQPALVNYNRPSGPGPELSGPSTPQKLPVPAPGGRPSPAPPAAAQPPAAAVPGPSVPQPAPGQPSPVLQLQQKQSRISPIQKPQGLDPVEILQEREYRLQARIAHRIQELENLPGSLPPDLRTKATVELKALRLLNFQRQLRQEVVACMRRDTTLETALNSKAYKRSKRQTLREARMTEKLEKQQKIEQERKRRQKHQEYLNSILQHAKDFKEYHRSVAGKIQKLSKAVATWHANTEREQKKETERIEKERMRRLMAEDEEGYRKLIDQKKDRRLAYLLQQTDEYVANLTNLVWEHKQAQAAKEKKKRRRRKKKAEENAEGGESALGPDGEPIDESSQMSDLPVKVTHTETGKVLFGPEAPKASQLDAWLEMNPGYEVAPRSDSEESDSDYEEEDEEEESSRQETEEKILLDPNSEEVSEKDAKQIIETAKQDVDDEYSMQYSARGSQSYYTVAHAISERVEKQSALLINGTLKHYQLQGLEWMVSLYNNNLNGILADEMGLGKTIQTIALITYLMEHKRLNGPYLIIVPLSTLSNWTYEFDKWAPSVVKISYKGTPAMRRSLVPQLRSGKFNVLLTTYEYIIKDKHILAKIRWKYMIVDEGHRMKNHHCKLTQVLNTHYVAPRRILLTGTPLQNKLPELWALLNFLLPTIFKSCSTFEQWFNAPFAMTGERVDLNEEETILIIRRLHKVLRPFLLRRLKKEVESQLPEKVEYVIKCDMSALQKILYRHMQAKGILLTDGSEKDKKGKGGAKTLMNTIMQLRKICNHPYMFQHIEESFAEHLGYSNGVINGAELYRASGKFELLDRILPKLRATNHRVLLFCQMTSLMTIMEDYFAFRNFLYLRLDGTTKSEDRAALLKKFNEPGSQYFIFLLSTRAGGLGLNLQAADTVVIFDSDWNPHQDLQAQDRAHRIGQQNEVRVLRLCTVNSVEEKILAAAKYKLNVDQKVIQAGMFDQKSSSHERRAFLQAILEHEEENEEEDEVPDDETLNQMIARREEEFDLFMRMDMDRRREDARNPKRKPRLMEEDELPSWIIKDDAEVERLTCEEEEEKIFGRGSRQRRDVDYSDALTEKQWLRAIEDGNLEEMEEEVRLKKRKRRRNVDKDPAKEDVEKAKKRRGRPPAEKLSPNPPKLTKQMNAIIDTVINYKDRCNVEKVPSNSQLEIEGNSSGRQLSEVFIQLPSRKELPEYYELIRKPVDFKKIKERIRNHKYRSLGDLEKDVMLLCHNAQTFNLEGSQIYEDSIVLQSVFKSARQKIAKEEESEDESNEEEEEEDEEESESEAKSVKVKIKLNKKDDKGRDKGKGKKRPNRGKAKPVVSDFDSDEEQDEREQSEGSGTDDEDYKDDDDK

`O=C(Nc1cc(F)c(=O)n(CC(F)F)c1)c1cc(Cl)c(C(F)(F)F)s1` [Compound 298, 4-Chloro-N-(1-(2,2-difluoroethyl)-5-fluoro-6-oxo-1,6-dihydropyridin-3-yl)-5-(trifluoromethyl)thiophene-2-carboxamide] gave an IC50 [1] of 24.1 nM, an IC50 ([2]; COV644, Ovarian Cancer) of 5600 nM and an IC50 ([2]; HCC15, HCC15, SMARCA4 protein Absent, Lung NSCLC squamous cell carcinoma) of 569 nM. It also gave an IC50 ([2]; Homo sapiens, A549, A549, SMARCA4 protein Absent, Lung NSCLC adenocarcinoma) of 142 nM, an IC50 ([2]; Homo sapiens, COR-L23, CORL23, SMARCA4 protein Present, Lung NSCLC large cell carcinoma) of 1400 nM and an IC50 ([2]; Homo sapiens, COR-L105, CORL105, SMARCA4 protein Present, Lung NSCLC adenocarcinoma) of 715 nM. For the same molecule, the IC50 ([2]; Homo sapiens, Calu-6, CALU6, SMARCA4 protein Present, Lung NSCLC undifferentiated carcinoma) was 1400 nM, the IC50 ([2]; Homo sapiens, DLD-1, DLD1, SMARCA4 protein Present, Colon Cancer adenocarcinoma) was 1400 nM and the IC50 ([2]; Homo sapiens, HCC44, HCC44, SMARCA4 protein Present, Lung NSCLC adenocarcinoma) was 3300 nM. For the same molecule, the IC50 ([2]; Homo sapiens, HCT-116, HCT116, SMARCA4 protein Present, Colon Cancer) was 836 nM, the IC50 ([2]; Homo sapiens, HT-1376, HT1376, Bladder Cancer transitional cell carcinoma) was 385 nM and the IC50 ([2]; Homo sapiens, MIA PaCa-2, MIAPACA2, Pancreatic Cancer ductal carcinoma) was 871 nM. It also gave an IC50 ([2]; Homo sapiens, NCI-H23, NCIH23, SMARCA4 protein Absent, Lung NSCLC non small cell carcinoma) of 891 nM, an IC50 ([2]; Homo sapiens, NCI-H358, NCIH358, SMARCA4 protein Present, Lung NSCLC bronchioloalveolar adenocarcinoma) of 10000 nM and an IC50 ([2]; Homo sapiens, NCI-H358, NCIH358 SMARCA2, SMARCA4 protein Present, Lung NSCLC bronchioloalveolar adenocarcinoma) of 5100 nM. For the same molecule, the IC50 ([2]; Homo sapiens, NCI-H358, NCIH358 SMARCA4, SMARCA4 protein Absent, Lung NSCLC bronchioloalveolar adenocarcinoma) was 312 nM, the IC50 ([2]; Homo sapiens, NCI-H441, NCIH441, SMARCA4 protein Present, Lung NSCLC adenocarcinoma) was 5000 nM and the IC50 ([2]; Homo sapiens, NCI-H460, NCIH460, SMARCA4 protein Present, Lung NSCLC large cell carcinoma) was 10000 nM. The IC50 ([2]; Homo sapiens, NCI-H522, NCIH522, SMARCA4 protein Absent, Lung NSCLC adenocarcinoma) was 10000 nM, the IC50 ([2]; Homo sapiens, NCI-H596, NCIH596, Lung NSCLC mixed adenosquamous carcinoma) was 10000 nM and the IC50 ([2]; Homo sapiens, NCI-H810, NCIH810, SMARCA4 protein Present, Lung NSCLC large cell carcinoma) was 946 nM. The IC50 ([2]; Homo sapiens, NCI-H1299, NCIH1299, Lung NSCLC non small cell carcinoma) was 548 nM, the IC50 ([2]; Homo sapiens, NCI-H1437, NCIH1437, SMARCA4 protein Present, Lung NSCLC adenocarcinoma) was 1400 nM and the IC50 ([2]; Homo sapiens, NCI-H1563, NCIH1563, SMARCA4 protein Present, Lung NSCLC adenocarcinoma) was 1100 nM. It also gave an IC50 ([2]; Homo sapiens, NCI-H1573, NCIH1573, SMARCA4 protein Absent, Lung NSCLC adenocarcinoma) of 701 nM, an IC50 ([2]; Homo sapiens, NCI-H1693, NCIH1693, SMARCA4 protein Absent, Lung NSCLC adenocarcinoma) of 202 nM and an IC50 ([2]; Homo sapiens, NCI-H1975, NCIH1975, SMARCA4 protein Present, Lung NSCLC non small cell carcinoma) of 10000 nM. It also gave an IC50 ([2]; Homo sapiens, NCI-H2030, NCIH2030, SMARCA4 protein Absent, Lung NSCLC non small cell carcinoma) of 1100 nM, an IC50 ([2]; Homo sapiens, NCI-H2122, NCIH2122, SMARCA4 protein Present, Lung NSCLC adenocarcinoma) of 3900 nM and an IC50 ([2]; Homo sapiens, PANC-1, PANC1, Pancreatic Cancer ductal carcinoma) of 223 nM. For the same molecule, the IC50 ([2]; Homo sapiens, SW900, SW900, SMARCA4 protein Present, Lung NSCLC squamous cell carcinoma) was 10000 nM, the IC50 ([2]; Hs766T, Pancreatic Cancer ductal carcinoma) was 10000 nM and the IC50 ([2]; NCI-H1568, NCIH1568, SMARCA4 protein Absent, Lung NSCLC adenocarcinoma) was 509 nM. The IC50 ([2]; OV7, Ovarian Cancer) was 154 nM, the IC50 ([2]; RERFLCAI, SMARCA4 protein Absent, Lung NSCLC squamous cell carcinoma) was 135 nM and the IC50 (A549 cells) was 142 nM. The IC50 (FL-SMARCA4) was 165 nM.
